PubChem BioAssay AID1549 (Sanford-Burnham Center for Chemical Genomics, 2009)
The source made the active and inactive calls. No rule for the calls is given here.

Target: Influenza A virus M2 proton channel (A/TW/4845/1999 H1N1)
Assay: M2 proton channel binding, NMR based, influenza A virus H1N1 strain (AID 1549)
Conditions: NMR binding screen, M2 protein

| Structure (SMILES) | Kd |
| --- | --- |
| O=C(O)C1=CCCNC1 | > 4 mM (inactive) |
| OC1CCN(Cc2ccc[nH]2)CC1 | > 4 mM (inactive) |
| Cn1nc(C(=O)N2CCOCC2)c2ccccc2c1=O | > 4 mM (inactive) |
| CCCCCC1C(=O)CCC1CC(=O)O (centres undefined) | > 4 mM (inactive) |
| CN(C)/C=N/S(=O)(=O)c1ccccc1 | > 4 mM (inactive) |
| CC(C)C(=O)NC(=S)N1CCOCC1 | > 4 mM (inactive) |
| Nc1nc(SCc2ccc3c(c2)OCO3)n[nH]1 | > 4 mM (inactive) |
| O=C(NC1=NCCS1)c1csc2ccccc12 | > 4 mM (inactive) |
| O=C(O)Cn1c(C(F)(F)F)nc2ccccc21 | > 4 mM (inactive) |
| O=C(Oc1ccc2c(c1)OCC2=O)c1ccccc1 | > 4 mM (inactive) |
| O=C1COc2ccccc2C(=O)N1 | > 4 mM (inactive) |
| COc1ccc(-c2cc(=O)c3c(O)c(OC)c(O[C@H]4O[C@H](CO[C@@H]5O[C@@H](C)[C@H](O)[C@@H](O)[C@H]5O)[C@@H](O)[C@H](O)[C@H]4O)cc3o2)cc1 | > 4 mM (inactive) |
| NS(=O)(=O)c1ccc(NC(=O)/C=C\C(=O)O)cc1 | > 4 mM (inactive) |
| Nc1ccc(Cl)nn1 | > 4 mM (inactive) |
| COC(=O)c1sc(N)nc1C | > 4 mM (inactive) |
| CC1(C)C2CC[C@]3(C)C(C(=O)C=C4[C@@H]5C[C@@](C)(C(=O)O)CC[C@]5(C)CC[C@]43C)[C@@]2(C)CC[C@@H]1O (some centres undefined) | > 4 mM (inactive) |
| NC(=O)C1CCN(C(=O)c2ccccc2F)CC1 | > 4 mM (inactive) |
| O=C(O)c1cc(=O)[nH]c2ccccc12 | > 4 mM (inactive) |
| CC(C)(C)c1cc(N)n[nH]1 | > 4 mM (inactive) |
| CCCS(=O)(=O)N1CCN(c2ccccc2F)CC1 | > 4 mM (inactive) |
| CC(C)/C(O)=C1/C(=O)O[C@@H](c2ccoc2)[C@]2(C)C(O)[C@@H](O)[C@@]34OC5(C)OC67CC(C)(C(O)[C@]6(O)[C@@H](O)[C@]3(O5)C12)[C@H](CC(=O)O)[C@]74C (some centres undefined) | > 4 mM (inactive) |

| Structure (SMILES) | Kd |
| --- | --- |
| O=C(c1cnsn1)N1CCN(c2ccccn2)CC1 | > 4 mM (inactive) |
| CCNC(CC(=O)Nc1cccc([N+](=O)[O-])c1)C(=O)O (centres undefined) | > 4 mM (inactive) |
| O=C(Nn1cnnc1)c1cc2c(s1)CCCC2 | > 4 mM (inactive) |
| Cc1nnc(SCc2ccc(F)cc2)s1 | > 4 mM (inactive) |
| CN1CCN(CC(=O)N2CCc3ccccc32)CC1 | > 4 mM (inactive) |
| COc1ccc(-c2nc(C)sc2CC(=O)O)cc1 | > 4 mM (inactive) |
| CN1C(=O)CC(=O)N(C)c2ccccc21 | > 4 mM (inactive) |
| C=C(C)[C@H]1CC=C(C(=O)O)CC1 | > 4 mM (inactive) |
| Cc1nc2ccc(C(=O)O)cc2nc1C | > 4 mM (inactive) |
| C=CCc1cc(C(=O)N2CCCCC2)ccc1O | > 4 mM (inactive) |
| O=C1C2CC=CCC2C(=O)N1c1ccccc1O (centres undefined) | > 4 mM (inactive) |
| Cc1ccc(CNc2ccc(O)cc2)cc1 | > 4 mM (inactive) |
| CN(C)S(=O)(=O)Nc1ccc(Br)cc1F | > 4 mM (inactive) |
| O=C(O)CCc1nc2ccccc2[nH]c1=O | > 4 mM (inactive) |
| CNC(=S)Nc1ccc(C(=O)O)cc1 | > 4 mM (inactive) |
| Cc1cc(C)n(-c2nc(N)cc(=O)[nH]2)n1 | > 4 mM (inactive) |
| CCc1cccc(C)c1NC(=O)c1cc(C)oc1C | > 4 mM (inactive) |
| CC(=O)Nc1ccccc1-c1ccccc1NC(C)=O | > 4 mM (inactive) |
| CC(=O)NC12CC3CC(C)(C1)CC(NC(C)=O)(C3)C2 | > 4 mM (inactive) |
| NC(=O)CSc1nc2ccccc2o1 | > 4 mM (inactive) |
| CC(C)(C)C(=O)Nc1nnc(SCC(N)=O)s1 | > 4 mM (inactive) |

| Structure (SMILES) | Kd |
| --- | --- |
| Cc1cc(C)nc(/N=C(\N)N2CCc3ccccc32)n1 | > 4 mM (inactive) |
| O=C(c1ccccc1)c1ccccc1C(=O)N1CCOCC1 | > 4 mM (inactive) |
| CC1(C)C=Cc2c(cc3occ(-c4ccc5c(c4)OCO5)c(=O)c3c2O)O1 | > 4 mM (inactive) |
| O=C(O)Cc1c[nH]c2ccccc12 | > 4 mM (inactive) |
| CC(=O)c1cccc(NC2=NCC(C)(C)S2)c1 | > 4 mM (inactive) |
| CS(=O)(=O)Nc1nnc(Cc2ccccc2)s1 | > 4 mM (inactive) |
| Cc1cccc(NC(=O)c2ccc(=O)[nH]n2)c1 | > 4 mM (inactive) |
| Oc1ccc([C@H]2Oc3cc(O)cc(O)c3C[C@H]2O)cc1 | > 4 mM (inactive) |
| COC(=O)CCC(C)C1CCC2C3CCC4C[C@H](O)CC[C@]4(C)C3C[C@H](O)[C@]12C (some centres undefined) | > 4 mM (inactive) |
| CN(C)C(=O)Oc1ccc(-c2nnco2)cc1 | > 4 mM (inactive) |
| CCc1ccccc1NC(=O)c1cnccn1 | > 4 mM (inactive) |
| CCc1nnc(NC(C)=O)s1 | > 4 mM (inactive) |
| CC1(C)CN=C(Nc2nc3ccccc3s2)S1 | > 4 mM (inactive) |
| COc1ccc(/C=C2/N=C(N)SC2=O)cc1 | > 4 mM (inactive) |
| O=[n+]1c(CO)c(CO)n([O-])c2ccccc21 | > 4 mM (inactive) |
| NC(=O)c1cccc(N2C(=O)C=CC2=O)c1 | > 4 mM (inactive) |
| NC(=O)NCCCC(N)C(=O)O (centres undefined) | > 4 mM (inactive) |
| C#CCCCCCCCCCCCC(O)CC(O)COC(C)=O (centres undefined) | > 4 mM (inactive) |
| COc1ccc2c(c1)OC/C(=C/c1ccc(O)c(O)c1)C2=O | > 4 mM (inactive) |
| Cn1c(=O)[nH]c(=O)c2nsnc21 | > 4 mM (inactive) |
| Cn1cc(C(=O)N/N=C/c2ccccc2)ccc1=O | > 4 mM (inactive) |

| Structure (SMILES) | Kd |
| --- | --- |
| Cc1[nH]ccc2c1[nH]c1cc(=O)ccc12 | > 4 mM (inactive) |
| O=C(NCc1cccs1)c1nn2cccnc2c1Cl | > 4 mM (inactive) |
| Cc1cc(C)n2nc(-c3cccnc3)nc2n1 | > 4 mM (inactive) |
| Cn1cnc2nc3n(c2c1=O)CCC3 | > 4 mM (inactive) |
| O=C(CC1NC(=O)NC1=O)Nc1ccccc1 (centres undefined) | > 4 mM (inactive) |
| O=C(O)/C=C/c1ccc(O)c(O)c1 | > 4 mM (inactive) |
| N#Cc1cnn(-c2ccc(Cl)cc2)c1N | > 4 mM (inactive) |
| O=C(O)c1cc(=O)c2cccc(O)c2[nH]1 | > 4 mM (inactive) |
| Nc1ccc(-c2cnco2)cc1 | > 4 mM (inactive) |
| COc1ccc(/C=N/n2cn[nH]c2=S)cc1 | > 4 mM (inactive) |
| O=C(/C=C/c1ccco1)NC1=NCCS1 | > 4 mM (inactive) |
| COC(=O)CSc1nnc(-c2ccc(C(=O)O)cc2)o1 | > 4 mM (inactive) |
| NC(=O)C12CC3CC(C1)C(=O)C(C3)C2 | > 4 mM (inactive) |
| NCc1cc2ccccc2s1 | > 4 mM (inactive) |
| CC(=O)O[C@H]1CC[C@@]2(C)C(=CCC3C2CC[C@@]2(C)C3CC[C@@H]2C(C)CCCC(C)C)C1 (some centres undefined) | > 4 mM (inactive) |
| COC(=O)CC1C(C)(C)C(OC(C)=O)[C@@H]2[C@@H](OC(C)=O)[C@]34O[C@@]2(O)[C@]1(C)C3CC[C@]1(C)C4=CC(=O)O[C@H]1c1ccoc1 (some centres undefined) | > 4 mM (inactive) |
| O=C1C2C3C=CC(O3)C2C(=O)N1c1ccccc1 (centres undefined) | > 4 mM (inactive) |
| CC(=O)Nc1ccc(S(=O)(=O)Nc2cc(C)on2)cc1 | > 4 mM (inactive) |
| O=C(O)c1ccc(N2CCOCC2)cc1 | > 4 mM (inactive) |
| CCC(=O)NC(=S)Nc1ccc(C(N)=O)cc1 | > 4 mM (inactive) |
| O=C(O)Cc1noc2ccccc12 | > 4 mM (inactive) |
